The assay addresses hTAAR1 (Homo sapiens (Human), UniProt Q96RJ0). Description: in vitro cAMP assay (agonist activity assay), HitHunter cAMP XS+, cAMP Hunter cell lines. The conditions noted are these: cAMP Hunter cells, n in brackets; for EC50: 30 min at 37° C., read-out: hTAAR1 EC50 (mean ± SEM(n)); for Emax: maximal cAMP level, read-out: hTAAR1 Emax (mean ± SEM(n)). It is filed as cell-based. As for the experimental part: EC50 (the effective concentration of an agonist that produces half of the maximal effect) and Emax (the maximal cAMP level generated by the biding of a ligand) can be used as a measure of potency. […] An in vitro cAMP assay (agonist activity assay) is described below.
cAMP Hunter cell lines were expanded from freezer stocks according to standard procedures. Cells were seeded in a total volume of 20 μL into white walled, 384-well microplates and incubated at 37° C. overnight prior to testing. cAMP modulation was determined using the HitHunter™ cAMP XS+ assay (DiscoverX, Fremont, Calif.).
On the day of test, media was aspirated from cells and replaced with 15 μL HBSS/10 mM HEPES. A plate centrifuge was used for the media exchange, and the plate centrifuge was immediately stopped once its speed hit 270 RPM.
5 μL of 4× compound (prepared in HBSS/10 mM HEPES/4% DMSO) was added to cells and incubated at 37° C. for 30 minutes. Final assay vehicle concentration was 1%.
5 μL of cAMP XS+ Antibody reagent was then added, followed by 20 μL of ED/CL lysis mix. The mixture was incubated at room temperature for 60 minutes. 20 μL of EA reagent was added, and the mixture was incubated at room temperature for 120 minutes.
Microplates were read following signal generation with a PerkinElmer Envision™ instrument (Waltham, Mass.) for chemiluminescent signal detection. Compound activity was analyzed using CBIS Data Analysis Suite (ChemInnovation, CA).

Chain of hTAAR1 (Q96RJ0 whole entry): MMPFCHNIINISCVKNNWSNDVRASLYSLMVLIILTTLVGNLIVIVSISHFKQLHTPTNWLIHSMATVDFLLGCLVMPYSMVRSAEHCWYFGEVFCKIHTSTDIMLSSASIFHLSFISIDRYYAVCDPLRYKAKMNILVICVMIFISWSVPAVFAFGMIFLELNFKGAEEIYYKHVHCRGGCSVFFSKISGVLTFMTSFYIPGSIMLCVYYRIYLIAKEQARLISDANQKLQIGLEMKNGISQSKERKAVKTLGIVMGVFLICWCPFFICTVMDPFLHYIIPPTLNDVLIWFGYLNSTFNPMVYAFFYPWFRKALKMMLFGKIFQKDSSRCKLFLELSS

For the compound `Clc1ccc([C@H]2COC(NC3=N[C@@H](c4ccc(Cl)c(Cl)c4)CO3)=N2)cc1Cl` [Compound (8), (4S)-4-(3,4-dichlorophenyl)-N-[(4S)-4-(3,4-dichlorophenyl)-4,5-dihydro-1,3-oxazol-2-yl]-4,5-dihydro-1,3-oxazol-2-amine], the EC50 was more than 10 µM.

In the case of `CCN(C[C@H]1COC(NC2=N[C@@H](c3ccc(Cl)c(Cl)c3)CO2)=N1)c1ccccc1` [Compound (24), (4S)-4-(3,4-dichlorophenyl)-N-[(4S)-4-{[ethyl(phenyl)amino]methyl}-4,5-dihydro-1,3-oxazol-2-yl]-4,5-dihydro-1,3-oxazol-2-amine], the EC50 was more than 10 µM and the Emax is 34.3 ± 8.7%.

As for `CCN(C[C@H]1COC(NC2=N[C@@H](CN(CC)c3ccccc3)CO2)=N1)c1ccccc1` [Compound (25), (4S)-4-{[ethyl(phenyl)amino]methyl}-N-[(4S)-4-{[ethyl(phenyl)amino]methyl}-4,5-dihydro-1,3-oxazol-2-yl]-4,5-dihydro-1,3-oxazol-2-amine], the EC50 is 4.07 ± 1.07 µM and the maximum response (Emax) was determined as 60.7 ± 9.4%.

With `c1ccc([C@H]2COC(NC3=N[C@@H](c4ccccc4)CO3)=N2)cc1` [Compound (26), (4S)-4-phenyl-N-[(4S)-4-phenyl-4,5-dihydro-1,3-oxazol-2-yl]-4,5-dihydro-1,3-oxazol-2-amine], the 50% effective concentration (EC50) is more than 10 µM and the Emax turned out to be 3.6 ± 0.9%.

In the case of `Cc1c(F)cccc1[C@H]1COC(NC2=N[C@@H](c3cccc(F)c3C)CO2)=N1` [Compound (27), (4S)-4-(3-fluoro-2-methylphenyl)-N-[(4S)-4-(3-fluoro-2-methylphenyl)-4,5-dihydro-1,3-oxazol-2-yl]-4,5-dihydro-1,3-oxazol-2-amine], the EC50 is 0.398 ± 0.0656 µM and the Emax came to 67.5 ± 3.4%.

These data come from patent publication US10858326B2, “Oxazoline pseudodimers, pharmaceutical compositions and the use thereof” (PURDUE PHARMA L.P., priority 2016, dated 2020).
